The text below walks through data of the NIST ThermoML archive (doi:10.1021/je300152t).

± gives the expanded uncertainty stated by the source.

A short description of data set [1]: Molar enthalpy of transition or fusion. The following applies: Crystal; DSC.
The conditions of data set [2]: Crystal; DTA.

Consider `CCOc1ccc(NC(C)=O)cc1` [N-(4-ethoxyphenyl)ethanamide], for which, in data set [1], the “Molar enthalpy of transition or fusion” value stood at 7.65 ± 0.167 kcal/mol. The Normal melting temperature in data set [2] turned out to be 134 ± 1 °C.
The matching figures for `CC(=O)Nc1ccccc1` [N-phenylethanamide]: 5.28 ± 0.12 kcal/mol and 113.8 ± 0.4 °C.
As to `O=C(Nc1ccccc1)c1ccccc1` [N-phenylbenzamide], the “Molar enthalpy of transition or fusion” value in data set [1] came out at 7.46 ± 0.359 kcal/mol. For the same compound, the Normal melting temperature in data set [2] was determined as 162 ± 1 °C.
The matching figures for `CCOc1cccc(NC(C)=O)c1` [N-(3-ethoxyphenyl)acetamide]: 6.91 ± 0.239 kcal/mol and 95 ± 0.9 °C.
As for `CC(=O)Nc1ccc(C)cc1` [1-acetamido-4-methylbenzene], in data set [1], the “Molar enthalpy of transition or fusion” value amounted to 7.03 ± 0.167 kcal/mol. The Normal melting temperature in data set [2] is 148.2 ± 0.7 °C.
The matching figures for `COc1ccc(NC(C)=O)cc1` [N-(4-methoxyphenyl)ethanamide]: 6.07 ± 0.191 kcal/mol and 125.1 ± 2.4 °C.
